Where “and” joins values, the source holds several entries; their conditions need not be identical. Equal values may be shown once.
Tests used:
human serum = assay: Protein binding in fresh human serum (Sephadex MicroSpin G-50 columns); format: in vitro ADME; details: 37° C.
Description: Protein binding was determined for different time points (2 min, 30 min, 60 min, 120 min) in triplicates using Sephadex MicroSpin G-50 columns (GE-Healthcare, Chicago, Illinois, USA). The columns were spun initially at 20,000 rcf for 1 min to remove the storage buffer. Then approx. 5 MBq of radioligand was added to 1 mL of fresh human serum and incubated at 37° C. At each given timepoint 25 μL of the mixture was loaded on to the column, which was then spun at 20,000 rcf for 1 min. The activity content on the column (free radioligand) and in the filtrate (protein bound fraction) was quantified in a γ-counter.

[1] = Ligand stability in human blood serum (radio-HPLC); format: in vitro ADME; details: for Serum stability (% of intact ligand): 37° C.
Description: (§1) Ligand stability in human blood serum (n=2) and PBS (n=1) was determined for different time points (2 min, 30 min, 60 min, 120 min). Therefore, approx. 5 MBq of radioligand was added to 1 mL of fresh human serum or PBS and incubated at 37° C. At each given time point 100 μL of the mixture were transferred to a 1.5 mL Eppendorf tube containing 100 μL of acetonitrile. The vial was vortexed and centrifuged for 2 min at 14,000 rpm before 100 μL of the supernatant were diluted with 200 μL of water and injected into analytical radio-HPLC. The PBS solution was directly injected into the radio-HPLC. Ligand stability was determined by integrating the areas of the signals in the radio chromatogram in relation to the signal of the intact ligand.

Recombinant human ASGR1 = target: T1, Recombinant human ASGR1 (Homo sapiens, UniProt P07306); assay: In vitro binding study, isolated receptor-based assay against ^125I-Asialoorosomucoid; details: recombinant human ASGR1, ^125I-Asialoorosomucoid 50 nM, n = 3; method used [^natGa]Ga-NODAGA-TriGalactan
T1 construct: His tag (inferred from immobilisation on Ni-coated plates)
T1 sequence (P07306 1-291): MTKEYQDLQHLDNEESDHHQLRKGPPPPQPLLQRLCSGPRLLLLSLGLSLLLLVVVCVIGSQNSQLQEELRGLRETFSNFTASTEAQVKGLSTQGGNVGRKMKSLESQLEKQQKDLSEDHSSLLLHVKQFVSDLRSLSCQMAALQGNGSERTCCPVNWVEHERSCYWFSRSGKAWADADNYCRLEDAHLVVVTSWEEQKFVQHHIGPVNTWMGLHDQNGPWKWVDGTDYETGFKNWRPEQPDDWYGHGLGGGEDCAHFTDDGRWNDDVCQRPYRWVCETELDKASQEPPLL
Description: Recombinant human ASGR1 was seeded out into Ni-coated 96 well plates (Pierce, Thermo Fisher) in PBS at a concentration of 2 μg/mL for at least 2 h at room temperature under mild agitation (200 1/min). Unbound receptor was removed by washing the wells twice with binding buffer (25 mM Tris×HCl, 150 mM NaCl, 0.05% TWEEN 20, pH=7.4). Next 140 μL of binding buffer as well as 20 μL of a 19 mM CaCl2-solution were added to the wells followed by addition of either 20 μL of PBS (control) or 20 μL of [^natGa]Ga-NODAGA-TriGalactan in PBS. Final ligand concentrations were ranging from 10^−5-10^−11 M. Lastly 20 μL of ^125I-Asialoorosomucoid (50 nM, 2.4 kBq per well) were added and the plate was incubated for 1 hour at room temperature under mild agitation (200 rpm). Supernatants were removed and the wells washed twice with 200 μL of PBS before receptor bound activity was released by addition of 200 μL of hot (60° C.) 1 M NaOH. Wells were incubated with NaOH for 10 min. Lysates were removed and the wells washed again twice with 200 μL of hot NaOH. The activity content in the lysates was quantified in a γ-counter and the values plotted in excel. Fitting of the sigmoidal binding curve and the calculation of the IC50 value was done with Excel's solver plugin.

[2] = Partition coefficient (log D), n-Octanol/PBS; format: physicochemical; details: read-out: logD
Description: The vials were vortexed for 5 min at 1,500 rpm and then centrifuged for 5 min at 20,000 rcf (Eppendorf Centrifuge 5424).

[3] = Ligand stability in PBS (radio-HPLC); format: physicochemical; details: 37° C., over the time course of 2 h
Description: as §1

[4] = Biodistribution studies incl. blocking experiments; format: in vivo; details: healthy BALB/c mice
Description: For biodistribution studies 6 week old female BALB/c mice (n=3) were injected with 0.1 nmol (100 μL, approx. 1 MBq) of labelled compound via the lateral tail vein and sacrificed after 10, 30, or 60 min by cervical dislocation. The mice were dissected, blood and organs (spleen, pancreas, stomach, intestine, liver, kidney, heart, lung, muscle, and bone) were weighed, and their activity measured in a γ-counter. For blocking experiments, mice were co-injected with 100 μL of a 277 mM Galactose/PBS solution. In case of [^68Ga]Ga-TRAP-GalNAc a 277 mM N-Acetylgalactose solution was used.

[5] = 30 min p.i., blocking with 277 mM galactose

Protein binding (%) (human serum; 2 min): 7.6±3.9% | Protein binding (%) (human serum; 30 min): 5.5% | Protein binding (%) (human serum; 60 min): 9.2% | Protein binding (%) (human serum; 120 min): 13.6±3.2% | Serum stability (% of intact ligand) ([1]; 2 min): 99.8% | Serum stability (% of intact ligand) ([1]; 30 min): 97.6% | Serum stability (% of intact ligand) ([1]; 60 min): 98.5% | Serum stability (% of intact ligand) ([1]; 120 min): 92.9% | Stability in human blood serum (% intact tracer) ([1]; over the time course of 2 h): > 93% | IC50 (Recombinant human ASGR1): 1.7 nM | logD [2]: -4.33 ± 0.09 | Stability in PBS (% intact tracer) [3]: > 99% | Biodistribution Blood ([4]; 10 min p.i.): 3.3 ± 0.2 % ID/g | Biodistribution Femur ([4]; 10 min p.i.): 0.87 ± 0.52 % ID/g | Biodistribution Intestine ([4]; 10 min p.i.): 1.13 ± 0.07 % ID/g | Biodistribution Kidneys ([4]; 10 min p.i.): 8.2±0.5 % ID/g and 8.15 ± 0.54 % ID/g | Biodistribution Liver ([4]; 10 min p.i.): 33.4±0.9 % ID/g and 33.4 ± 0.88 % ID/g | Biodistribution Lung ([4]; 10 min p.i.): 2.14 ± 0.13 % ID/g | Biodistribution Muscle ([4]; 10 min p.i.): 0.77 ± 0.02 % ID/g | Biodistribution Pancreas ([4]; 10 min p.i.): 0.87 ± 0.12 % ID/g | Biodistribution Spleen ([4]; 10 min p.i.): 0.78 ± 0.05 % ID/g | Biodistribution Blood ([4]; 30 min p.i.): 0.89 ± 0.09 % ID/g | Biodistribution Femur ([4]; 30 min p.i.): 0.22 ± 0.02 % ID/g | Biodistribution Heart ([4]; 30 min p.i.): 0.40 ± 0.03 % ID/g | Biodistribution Intestine ([4]; 30 min p.i.): 1.95 ± 0.17 % ID/g | Biodistribution Kidneys ([4]; 30 min p.i.): 2.83 ± 0.18 % ID/g | Biodistribution Liver ([4]; 30 min p.i.): 32.2±3.7 % ID/g | Biodistribution Lung ([4]; 30 min p.i.): 0.74 ± 0.03 % ID/g | Biodistribution Muscle ([4]; 30 min p.i.): 0.23 ± 0.03 % ID/g | Biodistribution Pancreas ([4]; 30 min p.i.): 0.31 ± 0.05 % ID/g | Biodistribution Spleen ([4]; 30 min p.i.): 0.27 ± 0.02 % ID/g | Biodistribution Stomach ([4]; 30 min p.i.): 1.05 ± 0.08 % ID/g | Biodistribution Blood [4, 5]: 1.19 ± 0.33 % ID/g | Biodistribution Femur [4, 5]: 0.37 ± 0.16 % ID/g | Biodistribution Heart [4, 5]: 0.44 ± 0.03 % ID/g | Biodistribution Intestine [4, 5]: 0.77 ± 0.19 % ID/g | Biodistribution Kidneys [4, 5]: 4.19 ± 0.29 % ID/g | Biodistribution Liver [4, 5]: 13.9±1.0 % ID/g and 14.6 ± 0.15 % ID/g | Biodistribution Lung [4, 5]: 0.97 ± 0.04 % ID/g | Biodistribution Muscle [4, 5]: 0.43 ± 0.20 % ID/g | Biodistribution Pancreas [4, 5]: 0.45 ± 0.01 % ID/g | Biodistribution Spleen [4, 5]: 0.32 ± 0.03 % ID/g | Biodistribution Stomach [4, 5]: 0.68 ± 0.11 % ID/g | Biodistribution Blood ([4]; 60 min p.i.): 0.3±0.04 % ID/g and 0.34 ± 0.04 % ID/g | Biodistribution Femur ([4]; 60 min p.i.): 0.26 ± 0.19 % ID/g | Biodistribution Heart ([4]; 60 min p.i.): 0.17 ± 0.00 % ID/g | Biodistribution Intestine ([4]; 60 min p.i.): 3.0±0.4 % ID/g and 2.99 ± 0.43 % ID/g | Biodistribution Kidneys ([4]; 60 min p.i.): 1.51 ± 0.10 % ID/g | Biodistribution Liver ([4]; 60 min p.i.): 27.7±3.1 % ID/g and 27.7 ± 3.12 % ID/g | Biodistribution Lung ([4]; 60 min p.i.): 0.38 ± 0.10 % ID/g | Biodistribution Muscle ([4]; 60 min p.i.): 0.17 ± 0.02 % ID/g | Biodistribution Pancreas ([4]; 60 min p.i.): 0.19 ± 0.09 % ID/g | Biodistribution Spleen ([4]; 60 min p.i.): 0.16 ± 0.02 % ID/g | Biodistribution Stomach ([4]; 60 min p.i.): 0.92 ± 0.04 % ID/g
SMILES: O=C(O)CN1CCN(CC(=O)O)CCN([C@H](CCC(=O)NCCCC(=O)NC(COCc2cn(CCOCCOCCO[C@@H]3O[C@H](CO)[C@H](O)[C@H](O)[C@H]3O)nn2)(COCc2cn(CCOCCOCCO[C@@H]3O[C@H](CO)[C@H](O)[C@H](O)[C@H]3O)nn2)COCc2cn(CCOCCOCCO[C@@H]3O[C@H](CO)[C@H](O)[C@H](O)[C@H]3O)nn2)C(=O)O)CC1 [[^68Ga]Ga-NODAGA-TriGalactan, metal not drawn]

From patent US20260151516A1, “NEW PET TRACER FOR IMAGING OF THE FUNCTIONAL HEPATIC RESERVE” (Medizinische Universität Innsbruck, priority 2022, published 2026)
